These results are taken from US6221670A, “Methods to identify β-amyloid reducing agents” (Scios Inc., priority 1997, dated 2001).

Where a SMILES comes first, the peptide text is derived from it. The star is where a group is joined. Cbz = O=C(OCc1ccccc1)*

One data set relates to β-amyloid 1-40. Put plainly: β-amyloid 1-40 secretion by transgenic mouse hippocampal organotypic slice culture (sandwich ELISA). Format: cell-based. Particulars: 72 h; 25 μM to 400 μM, 3-day conditioning period, FIG. 4; read-out: IC50 for β-amyloid production by transgenic mouse hippocampal organotypic slice culture. The method, then: Preparation of cultures. Ten day old mouse pups transgenic for the 751 amino acid isoform of human β-amyloid precursor protein (β-APP),programmed for neural expression by the neuron specific enolase promoter were used as tissue source for hippocampal organotypic slice cultures. Cultures were prepared as for rat brain slice organotypic cultures described in Example 1.
Preperation of cultures. Hippocampal organotypic slice cultures were prepared as described in example 2, from 10 day old mice transgenic for the 751 amino acid isoform of human β-amyloid precursor protein (β-APP), programmed for neural expression by the neuron specific enolase promoter and maintained in culture for 10 days.
Preparation of cultures. Hippocampal organotypic slice cultures are prepared from 10 day old mice transgenic for the 751 amino acid isoform of human β-amyloid precursor protein (β-APP), programmed for neural expression by the neuron specific enolase promoter as described in Example 2, and maintained in culture for 6 weeks.
Detailed description of FIG. 4. Hippocampal organotypic slice cultures were prepared from mice transgenic for β-APP751. […] Data points shown were calculated by first taking the mean of duplicate ELISA values for each well, and then calculating the mean of the values for the duplicate treatment wells. […]
On the technique in general: In an ELISA, binding on a coated surface is turned into a signal by an enzyme label.

Data set [1] in a line: toxicity in transgenic mouse hippocampal organotypic slice culture by LDH assay of serum free conditioned media. It is filed as cell-based, mice transgenic for β-APP751. Particulars: 25 μM to 400 μM, 3 days, then additional 24 hours in serum free media, not toxic until this concentration, read-out: concentration at which toxicity became apparent by LDH assay. As for the experimental part: Detailed description of FIG. 4. Hippocampal organotypic slice cultures were prepared from mice transgenic for β-APP751. On day 21 in vitro, organotypic cultures were washed with media twice, and duplicate wells were incubated for a 3-day conditioning period in media supplemented with 25 μM to 400 μM MDL 28170, a protease inhibitor shown to inhibit total β-amyloid production in cell culture with an IC50 of 100 μM. MDL 28170 was applied from 100×stock solutions prepared in DMSO. Control culture received only DMSO. Conditioned media was collected at day 24 and assayed in duplicate for β-amyloid 1-40 using a sandwich ELISA. Organotypic cultures were washed with serum free media twice and incubated for an additional 24 hours in serum free media in the continued presence of MDL 28170. This conditioned media was assayed for lactate dehydrogenase (LDH) activity. LDH is a ubiquitous cytosolic enzyme released into conditioned media only by unhealthy cells and is an index of viability and toxicity. High levels of LDH activity in serum require measurements to be made in serum free conditioned media. Data points shown were calculated by first taking the mean of duplicate ELISA values for each well, and then calculating the mean of the values for the duplicate treatment wells.
Assessment of β-amyloid inhibitor activity and toxicity. Cultures are observed visually approximately every other day. […]

A short description of data set [2]: toxicity in transgenic mouse hippocampal organotypic slice culture by visual inspection. Format: cell-based, mice transgenic for β-APP751. Particulars: 25 μM to 400 μM, not toxic until this concentration, read-out: concentration at which toxicity became apparent by visual inspection. The method, then: Assessment of β-amyloid inhibitor activity and toxicity. Cultures are observed visually approximately every other day. Prior to the commencement of compound testing, on day 18 in culture, a three day test period was initiated in which media was conditioned by the untreated cultures. This media was collected and assayed for β-amyloid 1-40 and 1-42 levels using sensitive ELISAs. Organotypic cultures were then washed with media twice, and incubated for a further 3 day conditioning period in media supplemented with 25 μM to 400 μM MDL 28170, a protease inhibitor shown to inhibit total β-amyloid production in cell culture with an IC50 of 100 μM. MDL 28170 was applied from 100×stock solutions prepared in DMSO. Control culture received only DMSO. After conditioned media was collected at […], organotypic cultures were washed with serum free media twice and incubated for an additional 24 hours in serum free media in the continued presence of MDL 28170. This conditioned media was assayed for lactate dehydrogenase (LDH) activity. LDH is a ubiquitous cytosolic enzyme released into conditioned media only by unhealthy cells and is an index of viability and toxicity. High levels of LDH activity in serum require measurements to be made in serum free conditioned media. […]

In data set [3] the test system is total β-amyloid production. Particulars: cited from earlier work.

One may read the IC50 as the concentration that gives 50% inhibition. Turning to `CC(C)[C@H](NC(=O)OCc1ccccc1)C(=O)N[C@H](C=O)Cc1ccccc1` [MDL 28170] (Cbz-Val-Phe-aldehyde), the half-maximal inhibitory concentration (IC50) in the data set on β-amyloid 1-40 is 100 µM; in data set [3] (cell culture (monotypic cells), previously shown, read-out: IC50 for inhibition of total β-amyloid production in cell culture), 100 µM. Moreover, the MCC in data set [1] and in data set [2] was 400 µM in each case. Also, the “reversibility of MDL activity on cultured monotypic cells” value in data set [3] (cultured monotypic cells) was “reversible”.
